According to patent US20120288544A1, “NOVEL RETIGABINE COMPOSITION” (GLAXO GROUP LIMITED, priority 2010, published 2012):

Experiment: pH dependent solubility of retigabine
Details: around pH 2 (stomach) versus around pH 7 (lower intestine)

For `CCOC(=O)Nc1ccc(NCc2ccc(F)cc2)cc1N` [Retigabine], which pH dependent solubility is on record?
The pH dependent solubility was “more soluble in the acidic conditions of the stomach (around pH 2) than in the near neutral conditions of the lower intestine (around pH 7)”.
